According to article PMC3867817 (Molecular cell, 2013):

Target: RagB-RagC heterodimer (RagB monitored) (Homo sapiens, UniProt Q5VZM2)
Experiment: GDP dissociation assay
Format: binding
Conditions: GDP on wild-type RagB with Rag^X partner; not altered by FLCN-FNIP

RagB-RagC heterodimer (RagB monitored), sequence (Q5VZM2 whole entry): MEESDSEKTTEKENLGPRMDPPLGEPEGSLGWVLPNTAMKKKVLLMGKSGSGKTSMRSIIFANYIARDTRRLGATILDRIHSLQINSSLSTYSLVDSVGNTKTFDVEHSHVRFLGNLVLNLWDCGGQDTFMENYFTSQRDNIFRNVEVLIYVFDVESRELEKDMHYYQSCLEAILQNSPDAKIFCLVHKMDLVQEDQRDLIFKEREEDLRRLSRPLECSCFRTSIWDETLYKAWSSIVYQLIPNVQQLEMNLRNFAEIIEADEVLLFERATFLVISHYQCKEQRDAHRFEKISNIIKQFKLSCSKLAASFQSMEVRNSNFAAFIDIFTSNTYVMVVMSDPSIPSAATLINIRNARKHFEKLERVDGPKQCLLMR
RagB-RagC heterodimer (RagB monitored), sequence (Q9HB90 2-399 D181N partner): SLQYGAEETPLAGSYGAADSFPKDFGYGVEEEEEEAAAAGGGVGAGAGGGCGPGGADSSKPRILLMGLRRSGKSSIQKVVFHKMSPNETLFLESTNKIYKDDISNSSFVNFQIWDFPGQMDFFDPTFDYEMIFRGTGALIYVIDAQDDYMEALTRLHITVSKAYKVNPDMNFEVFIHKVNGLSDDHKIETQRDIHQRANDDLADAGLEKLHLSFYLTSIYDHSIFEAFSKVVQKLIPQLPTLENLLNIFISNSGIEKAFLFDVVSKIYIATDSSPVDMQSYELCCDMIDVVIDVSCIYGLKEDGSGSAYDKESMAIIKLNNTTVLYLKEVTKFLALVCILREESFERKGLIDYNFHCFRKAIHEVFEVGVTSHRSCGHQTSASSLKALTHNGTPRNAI

Compound: Nc1nc2c(ncn2[C@@H]2O[C@H](COP(=O)(O)OP(=O)(O)O)[C@@H](O)[C@H]2O)c(=O)[nH]1 [GDP]
- GDP dissociation assay: did not stimulate or inhibit the dissociation of GDP from RagB or RagC
